Measured values as given in patent publication US8242086B2, “Methods and compositions for treating disorders caused by a deficiency in a gene product of a CLN gene” (Duke University, priority 2008, dated 2012).

What was measured:
CLN3 knockdown NT2 cells [1] = experiment: Cell apoptosis rate in CLN3 knockdown NT2 cells, propidium iodide; assay type: cell-based, human; settings: NT2 cells, 3 days post-transfection, vs wild type
Method: (§1) Cell Culture and Cell Treatment. NT2 neuronal precursor cells (ATCC cat no. CRL 1973) were grown in DMEM supplemented with 1% sodium pyruvate, L-glutamine and antibiotics and incubated in 37 C and 5% CO2 for 3 days.
siRNA knockdown of CLN3 in NT2 cells. HS1 siRNA ([…]) for CLN3 knockdown was designed using BLOCK-iT RNA™ Designer (Invitrogen). […] siRNA and scrambled universal negative control siRNA oligonucleotides were transfected into wild type NT2 cells using Lipofectamine RNAiMax™ according to manufacturer's protocol. In brief, […] HS1 RNAi duplex or scrambled siRNA universal negative control were diluted in 50 μl DMEM medium without serum. Lipofectamine™ RNAiMAX was mixed gently before use, then 1 μl was diluted in 50 μl DMEM medium. The diluted RNAi duplexes were combined with the diluted Lipofectamine RNAiMAX and incubated for 10 minutes at room temperature. […]
Determination of cell apoptosis rate in CLN3 knockdown NT2 cells. 10^6 cells transfected with CLN3 siRNA or scrambled siRNA, either treated with 50 ng/ml of GalCer (Avanti Polar Lipids, inc.) or solvent, are suspended in 100 μl PBS, incubated with 100 μl/0.5 mg/ml PI, washed, placed on slides and viewed using a fluorescence microscope. […] Cells in three fields of vision were counted. Percentage of red staining-apoptotic cells/total cells was determined.

CLN3 transcript = experiment: Real-Time PCR validation of CLN3 knockdown in NT2 cells; assay type: cell-based, human; settings: 3 days post-transfection, vs scrambled siRNA
Method: (§2) siRNA knockdown of CLN3 in NT2 cells. HS1 siRNA ([…]) for CLN3 knockdown was designed using BLOCK-iT RNA™ Designer (Invitrogen). […] siRNA and scrambled universal negative control siRNA oligonucleotides were transfected into wild type NT2 cells using Lipofectamine RNAiMax™ according to manufacturer's protocol. In brief, […] HS1 RNAi duplex or scrambled siRNA universal negative control were diluted in 50 μl DMEM medium without serum. Lipofectamine™ RNAiMAX was mixed gently before use, then 1 μl was diluted in 50 μl DMEM medium. The diluted RNAi duplexes were combined with the diluted Lipofectamine RNAiMAX and incubated for 10 minutes at room temperature. The RNAi duplex-Lipofectamine™ RNAiMAX complexes were added to cells for a final RNA concentration of 10 nM. Cells were harvested 96 hours post-transfection.
Real-Time PCR validation of CLN3 knockdown. To calculate the effect of CLN3 knockdown following siRNA transfection, RNA from NT2 cells, transfected either with CLN3 siRNA or with scrambled siRNA, was isolated using Trizol reagent (Invitrogen). Reverse transcription was carried out with SuperScript III First-Strand-Synthesis System (Invitrogen). Real Time-PCR was conducted on 500 ng cDNA using /SYBRGreen 10 Mix (Biorad, U.S.A) in a Biorad I-Cycler. […] To confirm CLN3 knockdown, change in fold expression compared to scrambled siRNA transfected control cells was calculated. […]

CLN3 knockdown NT2 cells [2] = experiment: Cell proliferation rate in CLN3 knockdown NT2 cells, Trypan blue dye exclusion; assay type: cell-based, human; settings: NT2 cells, 3 days post-transfection, vs WT-NT2
Method: as §1
as §2, with “Cells were harvested 96 hours post-transfection.” left out
Determination of cell proliferation rate in CLN3 knockdown NT2 cells. 4×10^5 cells transfected with CLN3 siRNA or scrambled siRNA, and treated or not treated with 50 ng/ml GalCer, were seeded and counted with Trypan blue dye exclusion. […]
NT2 cell proliferation and apoptosis rates. An equal number of NT2 cells was initially seeded and cell number determined at different time points with Trypan blue dye exclusion. […]

CLN6 protein = biological target: T1, CLN6 protein (Homo sapiens, UniProt Q9NWW5); experiment: Protein-lipid overlay assay, CLN6 protein; assay type: binding; settings: lysates from normal cells, custom made sphingostrips
T1 construct: endogenous in cells
T1 sequence (Q9NWW5 1-311): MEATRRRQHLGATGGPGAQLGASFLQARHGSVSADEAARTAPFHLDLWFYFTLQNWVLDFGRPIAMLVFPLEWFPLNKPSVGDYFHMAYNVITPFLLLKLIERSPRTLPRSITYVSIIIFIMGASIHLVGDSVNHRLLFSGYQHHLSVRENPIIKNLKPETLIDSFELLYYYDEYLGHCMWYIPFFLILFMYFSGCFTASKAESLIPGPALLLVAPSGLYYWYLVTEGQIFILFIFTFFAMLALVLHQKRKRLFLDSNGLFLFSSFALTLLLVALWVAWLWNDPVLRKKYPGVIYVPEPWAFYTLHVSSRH
Method: (§3) Protein-lipid overlay assay. Membrane arrays (SPHINGOSTRIPS (Echelon Research Laboratories, Salt Lake City, Utah), or lipids were spotted on nitrocellulose membranes and dried for at least one hour. Membranes were blocked with 3% (wt/vol) Fatty Acid Free or FFA-BSA (Sigma-Aldrich, St. Louis, Mo.) in Tris-Buffered Saline Tween-20 (TBST) [150 mM NaCl/10 mM Tris.HCl (pH 8.0), and 0.1% (vol/vol) Tween-20] for 1 h at RT. Blocked membranes were incubated for 8 h at 4° C. with 2 mg/ml of total cell lysate.
(§4) Fibroblasts overexpressing CLN3p (AC1 cells) and JNCL fibroblasts were used for the GalCer-CLN3 binding assay. The membranes were then washed five times for 5 min each with TBST. After washing, membranes were incubated with anti-CLN3, CLN1, CLN2, CLN6 or CLN8-antibodies overnight at 1:1000 dilution, followed by additional washing and incubation with horseradish peroxidase-conjugated anti-rabbit IgG goat antibody for 1 h at RT. After a final washing, enhanced chemiluminescence was used to detect binding of NCL proteins to sphingolipids. Intensity values were computed with an ImageJ software program.
CLN1, CLN2, CLN6, CLN8 and CLN9 proteins also bind to lipids. The protein-lipid overlay assay, using custom made sphingostrips, lysates from normal cells and anti-CLN1, anti-CLN2-, anti-CLN6, and anti-CLN8-antibodies, established that CLN6 and CLN8 proteins bind to GalCer, CLN1, CLN2 and CLN6p bind lysophosphatidic acid (LPA) and sulfatide, and CLN8p binds ceramide (FIG. 5).

wild-type CLN3p = biological target: T2, wild-type CLN3p (Homo sapiens, UniProt Q13286); experiment: Protein-lipid overlay assay, wild-type CLN3p; assay type: binding; settings: lysate of CLN3-overexpressing cells, anti-CLN3 antibody
T2 construct: expressed in transfected cells; host or cells: fibroblasts overexpressing CLN3p (AC1 cells)
T2 sequence (Q13286 1-438): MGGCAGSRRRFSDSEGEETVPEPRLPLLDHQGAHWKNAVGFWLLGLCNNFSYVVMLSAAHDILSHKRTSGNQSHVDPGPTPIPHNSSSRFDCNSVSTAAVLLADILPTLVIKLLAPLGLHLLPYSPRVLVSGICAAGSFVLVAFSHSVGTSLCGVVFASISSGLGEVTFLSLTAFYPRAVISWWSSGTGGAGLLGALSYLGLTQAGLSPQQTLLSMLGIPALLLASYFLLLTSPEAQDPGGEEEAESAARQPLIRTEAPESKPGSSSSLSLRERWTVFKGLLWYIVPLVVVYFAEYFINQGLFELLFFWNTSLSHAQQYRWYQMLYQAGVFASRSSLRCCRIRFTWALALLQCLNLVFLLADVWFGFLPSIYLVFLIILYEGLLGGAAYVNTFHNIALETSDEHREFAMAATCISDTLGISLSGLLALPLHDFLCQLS
Method: as §3, §4
Binding of CLN3 to GalCer and sulfatide. Membranes impregnated with sphingolipids were overlaid with protein cell lysates from CLN3-overexpressing and JNCL cells. Anti-CLN3 antibody was used to evaluate binding. […] The signal for GalCer-wild-type CLN3p binding was weaker because the more polar sulfatide competes with the less polar GalCer for binding to wild-type CLN3p.

CLN2 protein = biological target: T3, CLN2 protein (Homo sapiens, UniProt O14773); experiment: Protein-lipid overlay assay, CLN2 protein; assay type: binding; settings: lysates from normal cells, custom made sphingostrips
T3 construct: endogenous in cells
T3 sequence (O14773 196-563): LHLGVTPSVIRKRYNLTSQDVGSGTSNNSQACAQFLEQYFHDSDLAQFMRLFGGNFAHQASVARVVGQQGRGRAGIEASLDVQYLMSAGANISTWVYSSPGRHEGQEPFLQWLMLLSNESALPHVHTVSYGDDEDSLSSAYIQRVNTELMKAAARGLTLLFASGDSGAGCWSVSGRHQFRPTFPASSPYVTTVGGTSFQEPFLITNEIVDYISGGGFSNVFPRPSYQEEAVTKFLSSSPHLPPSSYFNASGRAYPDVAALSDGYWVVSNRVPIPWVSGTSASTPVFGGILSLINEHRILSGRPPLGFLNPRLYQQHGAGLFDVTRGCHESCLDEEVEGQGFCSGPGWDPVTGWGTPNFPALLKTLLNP
Method: as §3, §4
(§5) CLN1, CLN2, CLN6, CLN8 and CLN9 proteins also bind to lipids. […]

CLN1 protein = biological target: T4, CLN1 protein (Homo sapiens, UniProt P50897); experiment: Protein-lipid overlay assay, CLN1 protein; assay type: binding; settings: lysates from normal cells, custom made sphingostrips
T4 construct: endogenous in cells
T4 sequence (P50897 28-306): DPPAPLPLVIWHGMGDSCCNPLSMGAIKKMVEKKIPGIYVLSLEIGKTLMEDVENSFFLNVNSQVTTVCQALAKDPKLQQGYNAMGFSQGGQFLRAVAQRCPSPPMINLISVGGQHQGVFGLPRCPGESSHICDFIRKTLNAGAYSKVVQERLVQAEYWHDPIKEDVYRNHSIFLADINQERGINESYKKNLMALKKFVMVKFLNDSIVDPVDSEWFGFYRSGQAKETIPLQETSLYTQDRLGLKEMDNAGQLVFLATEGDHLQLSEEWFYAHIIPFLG
Method: as §3, §4, §5

mutant CLN3p = experiment: Protein-lipid overlay assay, mutant CLN3p (JNCL cell lysate); assay type: binding, human; settings: lysate of JNCL cells, anti-CLN3 antibody
Method: as §3, §4
Binding of CLN3 to GalCer and sulfatide. Membranes impregnated with sphingolipids were overlaid with protein cell lysates from CLN3-overexpressing and JNCL cells. Anti-CLN3 antibody was used to evaluate binding. […]

lymphoblasts = experiment: Propidium iodide staining of lymphoblasts treated with GCT siRNA, with or without etoposide; assay type: cell-based, human
Method: Propidium iodide (PI) staining. Lymphoblasts (treated with GCT siRNA vs. control siRNA) were treated vs. not treated with etoposide and stained with propidium iodide (PI). The percentage of PI positive cells was counted in each.

CLN8 protein = experiment: Protein-lipid overlay assay, CLN8 protein; assay type: binding; settings: lysates from normal cells, custom made sphingostrips
Method: as §3, §4, §5

HS1: HS1 siRNA (TCACGATTTGACTGCAACTCTG) for CLN3 knockdown (listed as DNA, chemistry not given here) [reference compound]
increase in apoptosis (CLN3 knockdown NT2 cells [1]): 2.4 fold | decrease in CLN3 expression (CLN3 transcript): 22 fold | decrease in growth (CLN3 knockdown NT2 cells [2]): 58%

sulfatide
binding of CLN6 protein to lipid (CLN6 protein): bind | binding of wild-type CLN3p to membrane spots impregnated with the lipid (wild-type CLN3p): bind strongly | binding of CLN2 protein to lipid (CLN2 protein): bind | binding of CLN1 protein to lipid (CLN1 protein): bind | binding of mutant CLN3 to membrane spots impregnated with the lipid (mutant CLN3p): failed to do so

COc1cc([C@@H]2c3cc4c(cc3[C@@H](O[C@@H]3O[C@@H]5CO[C@@H](C)O[C@H]5[C@H](O)[C@H]3O)[C@H]3COC(=O)[C@H]23)OCO4)cc(OC)c1O [Etoposide, etoposide]
effect of etoposide on apoptosis of GCT knockdown cells (lymphoblasts): augmented the effect of reduced GalCer on apoptosis

ceramide
binding of CLN8 protein to lipid (CLN8 protein): binds

lysophosphatidic acid
binding of CLN6 protein to lipid (CLN6 protein): bind | binding of CLN2 protein to lipid (CLN2 protein): bind | binding of CLN1 protein to lipid (CLN1 protein): bind
